Measurements published in patent US10376520B2, “Methods for the treatment of cardiovascular disorders” (Galapagos NV, priority 2015, dated 2019).

Test system: RA patients
Assay: Total cholesterol determination, Study 2 (RA patients, monotherapy with Compound 1)
Format: in vivo, human
Excerpt: Randomized, double-blind, placebo-controlled, multicenter, phase IIb dose finding study of Compound 1 (dosed as a [Compound 1:HCl:3H2O]) administered for 24 weeks as monotherapy to subjects with moderately to severely active rheumatoid arthritis who have an inadequate response to methotrexate alone
Double-blind, placebo-controlled, monotherapy study in subjects with moderately to severely active RA who have an inadequate response to methotrexate (MTX) (oral or parenteral).
280 subjects randomized to one of 3 doses of Compound 1 (dosed as a [Compound 1:HCl:3H2O]) or to placebo, given once daily (q.d.).
Twelve weeks of treatment with Compound 1 (dosed as a [Compound 1:HCl:3H2O]) at 50 mg, 100 mg, or 200 mg q.d.; or placebo. At Week 12, all subjects on placebo and the subjects on the 50 mg dose who have not achieved 20% improvement in swollen joint count (SJC66) and tender joint count (TJC68) will be assigned to 100 mg q.d. in a blinded fashion and will continue treatment until Week 24. Subjects in the other groups will maintain their randomized treatment until Week 24.
This method is based on the determination of Δ^4 cholestenone after enzymatic cleavage of the cholesterol ester by cholesterol esterase, conversion of cholesterol by cholesterol oxidase, and subsequent measurement by the Trinder reaction of the hydrogen peroxide formed (Allain et al., 1974).
Cholesterol esters are cleaved by the action of cholesterol esterase to yield free cholesterol and fatty acids. Cholesterol oxidase then catalyzes the oxidation of cholesterol to cholest-4-en-3-one and hydrogen peroxide. In the presence of peroxidase, the hydrogen peroxide formed effects the oxidative coupling of phenol and 4-aminophenazone to form a red quinone-imine dye. The color intensity of the dye formed is directly proportional to the cholesterol concentration. It is determined by measuring the increase in absorbance.
Human serum and plasma samples cholesterol determination was done on a Roche/Hitachi Cobas c 701/702 system which automatically calculate the analyte concentration of each sample.

[1] = 50 mg q.d. non responders switching to 100 mg q.d. at week 12, week 1
[2] = 50 mg q.d. non responders switching to 100 mg q.d. at week 12, week 2
[3] = 50 mg q.d. non responders switching to 100 mg q.d. at week 12, week 4
[4] = 50 mg q.d. non responders switching to 100 mg q.d. at week 12, week 8
[5] = 50 mg q.d. non responders switching to 100 mg q.d. at week 12, week 12
[6] = 50 mg q.d. non responders switching to 100 mg q.d. at week 12, week 16
[7] = 50 mg q.d. non responders switching to 100 mg q.d. at week 12, week 20
[8] = 50 mg q.d. non responders switching to 100 mg q.d. at week 12, week 24

## O=C(Nc1nc2cccc(-c3ccc(CN4CCS(=O)(=O)CC4)cc3)n2n1)C1CC1 [Compound 1, cyclopropanecarboxylic acid {5-[4-(1,1-dioxo-thiomorpholin-4-ylmethyl)-phenyl]-[1,2,4]triazolo[1,5-a]pyridin-2yl}-amide]
[1]
  [total cholesterol] Mean percentage CFB - 24 weeks results: 4.56%
  [total cholesterol] Median percentage CFB - 24 weeks results: 2.94%
[2]
  [total cholesterol] Mean percentage CFB - 24 weeks results: 3.50%
  [total cholesterol] Median percentage CFB - 24 weeks results: 2.00%
[3]
  [total cholesterol] Mean percentage CFB - 24 weeks results: 7.51%
  [total cholesterol] Median percentage CFB - 24 weeks results: 6.58%
[4]
  [total cholesterol] Mean percentage CFB - 24 weeks results: 5.10%
  [total cholesterol] Median percentage CFB - 24 weeks results: 2.88%
[5]
  [total cholesterol] Mean percentage CFB - 24 weeks results: 5.83%
  [total cholesterol] Median percentage CFB - 24 weeks results: 6.79%
[6]
  [total cholesterol] Mean percentage CFB - 24 weeks results: 9.72%
  [total cholesterol] Median percentage CFB - 24 weeks results: 11.41%
[7]
  [total cholesterol] Mean percentage CFB - 24 weeks results: 9.75%
  [total cholesterol] Median percentage CFB - 24 weeks results: 7.07%
[8]
  [total cholesterol] Mean percentage CFB - 24 weeks results: 10.66%
  [total cholesterol] Median percentage CFB - 24 weeks results: 10.65%
50 mg q.d. responders, week 1
  [total cholesterol] Mean percentage CFB - 24 weeks results: 0.02%
  [total cholesterol] Median percentage CFB - 24 weeks results: 0.35%
50 mg q.d. responders, week 2
  [total cholesterol] Median percentage CFB - 24 weeks results: −0.82%
50 mg q.d. responders, week 4
  [total cholesterol] Mean percentage CFB - 24 weeks results: 1.68%
  [total cholesterol] Median percentage CFB - 24 weeks results: −0.51%
50 mg q.d. responders, week 8
  [total cholesterol] Mean percentage CFB - 24 weeks results: 5.55%
  [total cholesterol] Median percentage CFB - 24 weeks results: 5.74%
50 mg q.d. responders, week 12
  [total cholesterol] Mean percentage CFB - 24 weeks results: 3.59%
  [total cholesterol] Median percentage CFB - 24 weeks results: 1.01%
50 mg q.d. responders, week 16
  [total cholesterol] Mean percentage CFB - 24 weeks results: 5.85%
  [total cholesterol] Median percentage CFB - 24 weeks results: 2.92%
50 mg q.d. responders, week 20
  [total cholesterol] Mean percentage CFB - 24 weeks results: 2.09%
  [total cholesterol] Median percentage CFB - 24 weeks results: 3.75%
50 mg q.d. responders, week 24
  [total cholesterol] Mean percentage CFB - 24 weeks results: 3.49%
  [total cholesterol] Median percentage CFB - 24 weeks results: 5.44%
50 mg q.d., week 1
  [total cholesterol] Mean percentage CFB - 12 weeks results: 0.96%
  [total cholesterol] Median percentage CFB - 12 weeks results: 2.12%
50 mg q.d., week 2
  [total cholesterol] Mean percentage CFB - 12 weeks results: −0.18%
  [total cholesterol] Median percentage CFB - 12 weeks results: 0.00%
50 mg q.d., week 4
  [total cholesterol] Mean percentage CFB - 12 weeks results: 2.91%
  [total cholesterol] Median percentage CFB - 12 weeks results: 0.00%
50 mg q.d., week 8
  [total cholesterol] Mean percentage CFB - 12 weeks results: 5.45%
  [total cholesterol] Median percentage CFB - 12 weeks results: 4.90%
50 mg q.d., week 12
  [total cholesterol] Mean percentage CFB - 12 weeks results: 4.08%
  [total cholesterol] Median percentage CFB - 12 weeks results: 3.43%
100 mg q.d., week 1
  [total cholesterol] Mean percentage CFB - 12 weeks results: 4.15%
  [total cholesterol] Mean percentage CFB - 24 weeks results: 4.15%
  [total cholesterol] Median percentage CFB - 24 weeks results: 2.38%
100 mg q.d., week 2
  [total cholesterol] Mean percentage CFB - 12 weeks results: 4.96%
  [total cholesterol] Mean percentage CFB - 24 weeks results: 4.96%
  [total cholesterol] Median percentage CFB - 24 weeks results: 2.65%
100 mg q.d., week 4
  [total cholesterol] Mean percentage CFB - 12 weeks results: 8.28%
  [total cholesterol] Mean percentage CFB - 24 weeks results: 8.28%
  [total cholesterol] Median percentage CFB - 24 weeks results: 5.40%
100 mg q.d., week 8
  [total cholesterol] Mean percentage CFB - 12 weeks results: 7.75%
  [total cholesterol] Mean percentage CFB - 24 weeks results: 7.75%
  [total cholesterol] Median percentage CFB - 24 weeks results: 6.08%
100 mg q.d., week 12
  [total cholesterol] Mean percentage CFB - 12 weeks results: 12.45%
  [total cholesterol] Mean percentage CFB - 24 weeks results: 12.45%
  [total cholesterol] Median percentage CFB - 24 weeks results: 6.41%
100 mg q.d., week 16
  [total cholesterol] Mean percentage CFB - 24 weeks results: 10.96%
  [total cholesterol] Median percentage CFB - 24 weeks results: 8.91%
100 mg q.d., week 20
  [total cholesterol] Mean percentage CFB - 24 weeks results: 10.06%
  [total cholesterol] Median percentage CFB - 24 weeks results: 9.85%
100 mg q.d., week 24
  [total cholesterol] Mean percentage CFB - 24 weeks results: 11.75%
  [total cholesterol] Median percentage CFB - 24 weeks results: 10.29%
200 mg q.d., week 1
  [total cholesterol] Mean percentage CFB - 12 weeks results: 5.77%
  [total cholesterol] Mean percentage CFB - 24 weeks results: 5.77%
  [total cholesterol] Median percentage CFB - 24 weeks results: 5.37%
200 mg q.d., week 2
  [total cholesterol] Mean percentage CFB - 12 weeks results: 7.74%
  [total cholesterol] Mean percentage CFB - 24 weeks results: 7.74%
  [total cholesterol] Median percentage CFB - 24 weeks results: 6.90%
200 mg q.d., week 4
  [total cholesterol] Mean percentage CFB - 12 weeks results: 9.35%
